Assay results from US4786648A, “O-substituted tetrahydropyridine oxime cholinergic agents” (Warner-Lambert Company, priority 1987, dated 1988).
Read-outs that look alike come from different tables or passages of the source.

Experiments:
[1] = biological target: central muscarinic binding site; conditions: radio-labeled quinuclidinyl benzilate (antagonist), rat cerebral cortex
[2] = biological target: central muscarinic binding site; test: RCMD screening assay (inhibition of radio-labeled cis-methyldioxolane binding, rat cerebral cortex tissue)
Protocol: Similarly, in the RCMD screening assay, described more fully by T. W. Vickeroy, et al, J. Pharmacol. Exp. Ther., 229 (3): 747 (1984), rat cerebral cortex tissue was treated with radio-labeled cis-methyldioxolane,a known muscarinic binding site agonist. The concentrations of test compounds required to inhibit 50% of the binding of this muscarinic agonist were then determined.

[3] = system: laboratory rats given scopolamine; test: SIS, scopolamine induced swimming test; format: in vivo, rat; conditions: for reversal of scopolamine-induced swimming hyperactivity: rats given scopolamine; for minimal effective dose: Rattus norvegicus, sc, Tables 3 and 4, Subcutaneous, five minute test period, read-out: Minimal Effective Dose for Reversal of Scopolamine-Induced Swimming Hyperactivity
Protocol: In a second screening assay, designated SIS, the scopolamine induced swimming test, the ability of representative compounds of the present invention to reverse the hyperactive swimming behavior of laboratory rats given scopolamine was assessed. In this test, untreated rats will generally swim between 20 to 30 meters during a five minute test period. […] This swimming hyperactivity can be reversed by administration of physostigmine or the cholinergic agonist, arecoline. The effect of scopolamine is centrally mediated; the ability of a test compound to reverse the hyperactive swimming behavior induced by scopolamine is thus a measure of the central cholinergic activity of the compound.

[4] = system: patients clinically diagnosed as having presenile primary degenerative dementia; conditions: double blind study, Christie, et al (1981); cited from earlier work
[5] = system: age-related cognitive deficits; conditions: H. P. Davis, et al (1983); cited from earlier work
[6] = system: Aged humans and nonhuman primates with decreased cognition; conditions: acetylcholinesterase inhibitor treatment; cited from earlier work
[7] = Table 1, radio-labeled cis-methyldioxolane (agonist)
[8] = Table 2, radio-labeled cis-methyldioxolane (agonist)

| SMILES | IC50 ([1]; Table 1) [nM] | IC50 [2, 7] [nM] | minimal effective dose ([3]; scopolamine 0.1 mg/kg, rats) [mg/kg] | other results |
| --- | --- | --- | --- | --- |
| CCON=CC1=CCCNC1 [Example 7, 1,2,5,6-Tetrahydro-3-pyridinecarboxaldehyde, O-ethyloxime] | 1000 | 42 |  |  |
| COC(=O)C1=CCCN(C)C1 [arecoline, methyl ester of 1,2,5,6-tetrahydro-1-methyl-3-pyridinecarboxylic acid, reference compound] |  |  |  | reversal of scopolamine-induced swimming hyperactivity [3]: reversed; improvement in a test of picture recognition [4]: Significant improvement |
| CON=C(C)C1=CCCNC1 [Example 8, 1-(1,2,5,6-Tetrahydro-3-pyridinyl)ethanone, O-methyloxime] | 5800 | 28 |  |  |
| Nc1ccncc1N [3,4-diaminopyridine] |  |  |  | effect on age-related cognitive deficits [5]: ameliorate age-related cognitive deficits |
| CON=CC1=CCCN(C)C1 [Example 3, 1,2,5,6-Tetrahydro-1-methyl-3-pyridinecarboxaldehyde O-Methyloxime] | 1800 | 2 | 3.2 |  |
| CNC(=O)Oc1ccc2c(c1)[C@]1(C)CCN(C)[C@@H]1N2C [physostigmine, reference compound] |  |  |  | reversal of scopolamine-induced swimming hyperactivity [3]: reversed; memory in aged humans and nonhuman primates with decreased cognition [6]: improved memory |
| CN1[C@@H]2C[C@@H](OC(=O)[C@H](CO)c3ccccc3)C[C@H]1[C@@H]1O[C@@H]12 [scopolamine, reference compound] |  |  |  | increase of swimming distance above baseline values ([3]; scopolamine 0.1 mg/kg, rats): 75-125% |
| CCON=CC1=CCCN(C)C1 [Example 6, 1,2,5,6-Tetrahydro-1-methyl-3-pyridinecarboxaldehyde, O-Ethyloxime] | 10000 | 28 |  |  |
| CON=CC1=CCCNC1 [Example 4, 1,2,5,6-Tetrahydro-3-pyridinecarboxaldehyde, O-Methyl oxime] | 7100 | 10 | 3.2 |  |
| CON=CC1=CCNCC1 [Example 15, 1,2,3,6-Tetrahydro-4-pyridinecarboxaldehyde, O-Methyloxime] |  |  |  | IC50 ([1]; Table 2): < 1 nM; IC50 [2, 8]: > 0.1 nM |
| CCC(=NOC)C1=CCCNC1 [Example 2, 1-(1,2,5,6-Tetrahydro-3-pyridinyl)-1-propanone, O-Methyloxime] | 9500 | 290 |  |  |
| CON=C(C)C1=CCNCC1 [Example 13, 1-(1,2,3,6-Tetrahydro-4-pyridinyl)ethanone, O-Methyloxime] |  |  | 10 |  |
| CON=CC1=CCN(C)CC1 [Example 14, 1,2,3,6-Tetrahydro-1-methyl-4-pyridinecarboxaldehyde, O-Methyloxime] |  |  | 32 | IC50 ([1]; Table 2): > 1 nM; IC50 [2, 8]: > 0.1 nM |
